# Experiments:
# C. albicans = experiment: Lipid peroxidation (TBARS, MDA); assay type: cell-based, Candida albicans; conditions: 2×MIC
# Protocol: Superoxide dismutase (SOD) activity was determined using a Superoxide Dismutase Assay Kit (Caymanchem, MI, USA) per the distributor's instructions. Lipid peroxidation was determined using a TBARS assay kit (TCA method) (Caymanchem, MI, USA) per the distributor's instructions. SOD activity and MDA levels were normalized by protein content determined by the Pierce assay (Pierce™ BCA Protein Assay Kit, Thermo Fisher Scientific, MA, USA).
# HEK293T cells = experiment: Toxicity to HEK293T cells (CellTiter-Glo) and therapeutic index; assay type: cell-based, human; conditions: ratio between IC50 (HEK293T) and MIC
# Protocol: The toxicity of visible-light-activated MMs to mammalian cells was investigated in human embryonic kidney cells (HEK293T) treated with increasing MM concentrations and 87.6 J cm^−2 of 405-nm light. […] The MM concentration that reduced viability by 50% (IC50), calculated from dose-response curves (FIG. 16C), ranged from 1.61-6.02 µM (FIG. 16D). The IC50 and MIC were used to calculate the therapeutic index. With a therapeutic index ≥1 (FIG. 16D), MM 1 was used for in vivo and ex vivo studies.
# The biocompatibility of MMs with […] HEK293T cells was assessed using the CellTiter-Glo® Luminescent Cell Viability Assay (Promega, WI, USA) per the manufacturer's instructions by treating cells with increasing concentrations of different MMs plus 405-nm light (87.6 J cm^−2). Dose-response curves were used to determine the MM concentrations that reduced cell viability by 50% (IC50). The therapeutic index was calculated as the ratio between the IC50 and the MIC.
# E. coli = experiment: Extracellular ATP, E. coli; assay type: cell-based, Escherichia coli; conditions: 1×MIC
# Protocol: Intracellular content leakage following treatment with MMs was determined by quantifying extracellular ATP (O'Neill et al, 2004). Following irradiation in the presence of different concentrations of MM 1, MM 5, and MM 6, or 1% DMSO, E. coli cells were centrifuged at 13,000 g for 5 min. Supernatants were recovered and stored at −20 ° C for ATP analysis. ATP analysis was conducted using the luminescence-based BacTiter-Glo™ assay (Promega) per the manufacturer's instructions. Nisin was used as a positive control. The levels of ATP in supernatants were derived via a standard curve of ATP standards from 1 nM to 1 μM. Luminescence measurements of ATP standards and culture supernatants were measured in triplicate on a microplate reader (BioTek Instruments Inc, Winooski, VT, USA). Results were expressed as relative light units (RLU) corrected for […] in the absence of cells.
# E. coli transcripts = experiment: GO enrichment analysis of transcripts more abundant in DMSO controls than in MM 1-treated E. coli; assay type: cell-based, Escherichia coli; conditions: more abundant in DMSO controls than at 0.5×MIC, 405 nm
# Protocol: Gene ontology (GO) enrichment analysis of the transcripts displaying significant differences (p<0.05) in abundance between MM- and DMSO-treated cells was performed using Panther (http://pantherdb.org/) using the Fisher's Exact test. Results were corrected for the false discovery rate (FDR).
# [1] = cytosolic small ribosomal subunit
# [2] = integral component of plasma membrane
# [3] = intracellular anatomical structure
# [4] = intracellular non-membrane-bounded organelle
# [5] = intrinsic component of membrane
# [6] = intrinsic component of plasma membrane
# [7] = plasma membrane protein complex
# [8] = plasma membrane respiratory chain complex I
smiles,measurement,setting,value
"C[C@@H]1Cc2ccc3ccccc3c2/C1=C1\c2ccccc2Sc2cc(NCCN)ccc21 (racemic) [MM 6, N^1-(9-(2-methyl-2,3-dihydro-1H-cyclopenta[a]naphthalen-1-ylidene)-9H-thioxanthen-3-yl)ethane-1,2-diamine]",lipid peroxidation product levels,C. albicans,increased levels of the lipid peroxidation product malonaldehyde
"C[C@@H]1Cc2ccc3ccccc3c2/C1=C1\c2ccccc2Sc2cc(NCCN(C)C)ccc21 [MM 1, N^1N^1-dimethyl-N^2-(9-(2-methyl-2,3-dihydro-1H-cyclopenta[a]naphthalen-1-ylidene)-9H-thioxanthen-3-yl) ethane-1,2-diamine]",therapeutic index,HEK293T cells,≥ 1
same,extracellular levels of ATP,E. coli,up to 1.2×10^−7 moles
same,Fold Enrichment,E. coli transcripts; NADH dehydrogenase complex,3.02
same,"transcripts significantly enriched in DMSO controls, #",E. coli transcripts; NADH dehydrogenase complex,15
same,Fold Enrichment,E. coli transcripts; Unclassified (−),.71
same,"transcripts significantly enriched in DMSO controls, #",E. coli transcripts; Unclassified (−),300
same,Fold Enrichment,E. coli transcripts; catalytic complex,1.51
same,"transcripts significantly enriched in DMSO controls, #",E. coli transcripts; catalytic complex,129
same,Fold Enrichment,E. coli transcripts; cell periphery,1.15
same,"transcripts significantly enriched in DMSO controls, #",E. coli transcripts; cell periphery,454
same,Fold Enrichment,E. coli transcripts; cellular anatomical entity,1.14
same,"transcripts significantly enriched in DMSO controls, #",E. coli transcripts; cellular anatomical entity,969
same,Fold Enrichment,E. coli transcripts; cytoplasm,1.18
same,"transcripts significantly enriched in DMSO controls, #",E. coli transcripts; cytoplasm,487
same,Fold Enrichment,E. coli transcripts; cytosol,1.28
same,"transcripts significantly enriched in DMSO controls, #",E. coli transcripts; cytosol,394
same,"transcripts significantly enriched in DMSO controls, #",E. coli transcripts; cytosolic large ribosomal subunit,25
same,Fold Enrichment,E. coli transcripts; cytosolic ribosome,2.64
same,"transcripts significantly enriched in DMSO controls, #",E. coli transcripts; cytosolic ribosome,44
same,Fold Enrichment,E. coli transcripts; [1],2.60
same,"transcripts significantly enriched in DMSO controls, #",E. coli transcripts; [1],19
same,Fold Enrichment,E. coli transcripts; integral component of membrane,1.20
same,"transcripts significantly enriched in DMSO controls, #",E. coli transcripts; integral component of membrane,386
same,Fold Enrichment,E. coli transcripts; [2],1.27
same,"transcripts significantly enriched in DMSO controls, #",E. coli transcripts; [2],216
same,Fold Enrichment,E. coli transcripts; [3],1.20
same,"transcripts significantly enriched in DMSO controls, #",E. coli transcripts; [3],509
same,Fold Enrichment,E. coli transcripts; [4],2.09
same,"transcripts significantly enriched in DMSO controls, #",E. coli transcripts; [4],61
same,Fold Enrichment,E. coli transcripts; intracellular organelle,2.01
same,"transcripts significantly enriched in DMSO controls, #",E. coli transcripts; intracellular organelle,63
same,Fold Enrichment,E. coli transcripts; [5],1.19
same,"transcripts significantly enriched in DMSO controls, #",E. coli transcripts; [5],392
same,Fold Enrichment,E. coli transcripts; [6],1.29
same,"transcripts significantly enriched in DMSO controls, #",E. coli transcripts; [6],225
same,Fold Enrichment,E. coli transcripts; large ribosomal subunit,2.67
same,"transcripts significantly enriched in DMSO controls, #",E. coli transcripts; large ribosomal subunit,25
same,Fold Enrichment,E. coli transcripts; membrane protein complex,1.55
same,"transcripts significantly enriched in DMSO controls, #",E. coli transcripts; membrane protein complex,98
same,Fold Enrichment,E. coli transcripts; membrane,1.16
same,"transcripts significantly enriched in DMSO controls, #",E. coli transcripts; membrane,470
same,Fold Enrichment,E. coli transcripts; non-membrane-bounded organelle,1.68
same,"transcripts significantly enriched in DMSO controls, #",E. coli transcripts; non-membrane-bounded organelle,64
same,Fold Enrichment,E. coli transcripts; organelle,1.65
same,"transcripts significantly enriched in DMSO controls, #",E. coli transcripts; organelle,66
same,Fold Enrichment,E. coli transcripts; oxidoreductase complex,2.47
same,"transcripts significantly enriched in DMSO controls, #",E. coli transcripts; oxidoreductase complex,47
same,Fold Enrichment,E. coli transcripts; [7],1.51
same,"transcripts significantly enriched in DMSO controls, #",E. coli transcripts; [7],73
same,Fold Enrichment,E. coli transcripts; plasma membrane respirasome,2.99
same,"transcripts significantly enriched in DMSO controls, #",E. coli transcripts; plasma membrane respirasome,21
same,Fold Enrichment,E. coli transcripts; [8],2.99
same,"transcripts significantly enriched in DMSO controls, #",E. coli transcripts; [8],14
same,Fold Enrichment,E. coli transcripts; plasma membrane,1.19
same,"transcripts significantly enriched in DMSO controls, #",E. coli transcripts; plasma membrane,431
same,Fold Enrichment,E. coli transcripts; protein-containing complex,1.47
same,"transcripts significantly enriched in DMSO controls, #",E. coli transcripts; protein-containing complex,258
same,Fold Enrichment,E. coli transcripts; respirasome,3.04
same,"transcripts significantly enriched in DMSO controls, #",E. coli transcripts; respirasome,24
same,Fold Enrichment,E. coli transcripts; respiratory chain complex I,2.99
same,"transcripts significantly enriched in DMSO controls, #",E. coli transcripts; respiratory chain complex I,14
same,Fold Enrichment,E. coli transcripts; respiratory chain complex,3.01
same,"transcripts significantly enriched in DMSO controls, #",E. coli transcripts; respiratory chain complex,22
same,Fold Enrichment,E. coli transcripts; ribonucleoprotein complex,2.61
same,"transcripts significantly enriched in DMSO controls, #",E. coli transcripts; ribonucleoprotein complex,45
same,Fold Enrichment,E. coli transcripts; ribosomal subunit,2.64
same,"transcripts significantly enriched in DMSO controls, #",E. coli transcripts; ribosomal subunit,44
same,Fold Enrichment,E. coli transcripts; ribosome,2.51
same,"transcripts significantly enriched in DMSO controls, #",E. coli transcripts; ribosome,47
same,Fold Enrichment,E. coli transcripts; small ribosomal subunit,2.60
same,"transcripts significantly enriched in DMSO controls, #",E. coli transcripts; small ribosomal subunit,19
